Reference: patent publication US7205315B2, “Bicyclic imino acid derivatives as inhibitors of matrix metalloproteinases” (Sanofi-Aventis Deutschland GmbH, priority 2003, dated 2007)
Where a name gives a salt, the structure may show the parent alone.

Legend:
[1] = target: T1, catalytic domain of human collagenase-1 (MMP-1) (Homo sapiens, UniProt P03956); assay: Enzyme activity of the catalytic domain of human collagenase-1 (MMP-1), fluorogenic substrate; format: biochemical; conditions: APMA-activated proenzyme, fluorescence 328/393 nm
T1 construct: enzyme activity of the catalytic domain of human collagenase-1 (MMP-1); purchased Biocol, Potsdam MMP1
T1 sequence (P03956 100-269 limits assumed): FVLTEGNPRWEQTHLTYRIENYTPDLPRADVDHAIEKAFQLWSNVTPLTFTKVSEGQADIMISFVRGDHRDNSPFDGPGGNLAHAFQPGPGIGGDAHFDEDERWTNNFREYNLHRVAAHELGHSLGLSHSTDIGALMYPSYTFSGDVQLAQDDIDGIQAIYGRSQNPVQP
Description: a) Determining the enzyme activity of the catalytic domain of human collagenase-1 (MMP-1).
Activation of the proenzyme:
2 parts by volume of proenzyme are incubated, at 37° C. for 1 hour, with 1 part by volume of APMA solution. The APMA solution is prepared from a 10 mmol/l solution of p-aminophenylmercuric acetate in 0.1 mmol/l NaOH by diluting with 3 parts by volume of tris/HCl buffer, pH 7.5 (see below). The pH is adjusted to between 7.0 and 7.5 by adding 1 mmol/l HCl. After the enzyme has been activated, it is diluted with the tris/HCl buffer to a concentration of 2.5 μg/ml.
(§1) In order to measure the enzyme activity, 10 μl of enzyme solution are incubated for 15 minutes with 10 μl of a 3% (v/v) buffered solution of dimethyl sulfoxide (reaction 1). In order to measure the enzyme inhibitor activity, 10 μl of enzyme solution are incubated with 10 μl of a 3% (v/v) buffered solution of dimethyl sulfoxide which contains the enzyme inhibitor (reaction 2).
Both in the case of reaction 1 and in the case of reaction 2, the enzyme reaction is monitored by fluorescence spectroscopy (328 nm (extinction)/393 nm (emission)) after adding 10 μl of a 3% (v/v) aqueous solution of dimethyl sulfoxide which contains 0.3 mmol of the substrate/l.
The enzyme activity is presented as increase in extinction/minute.
The inhibitory effect is calculated as percentage inhibition using the following formula: % inhibition=100−[(increase in extinction/minute in reaction 2)/(increase in extinction/minute in reaction 1)×100].
The IC50, i.e. the inhibitor concentration which is required for 50% inhibition of the enzyme activity, is determined graphically by plotting the percentage inhibitions at different inhibitor concentrations. The buffer solution contains 0.05% Brij (Sigma, Deisenhofen, Germany) and also 0.1 mol of tris/HCl/l, 0.1 mol of NaCl/l, 0.01 mol of CaCl2/l (pH=7.5).
The enzyme solution contains 2.5 μg of the enzyme domain/ml.
The substrate solution contains 0.3 mmol of the fluorogenic substrate (7-methoxycoumarin-4-yl)acetyl-Pro-Leu-Gly-Leu-3-(2′,4′-dinitrophenyl)-L-2,3-diaminopropionyl-Ala-Arg-NH2/l (Bachem, Heidelberg, Germany).

[2] = target: T2, catalytic domain of human gelatinase A (MMP-2) (Homo sapiens, UniProt P08253); assay: Enzyme activity of the catalytic domain of human gelatinase A (MMP-2), fluorogenic substrate; format: biochemical; conditions: APMA-activated proenzyme, fluorescence 328/393 nm
T2 construct: enzyme activity of the catalytic domain of human gelatinase A (MMP-2); purchased INVITEK, Berlin 30 100 602
Description: d) Determining the enzyme activity of the catalytic domain of human gelatinase A (MMP-2). […] Activation of the proenzyme:
2 parts by volume of proenzyme were incubated, at 37° C. for 0.5 hour, with 1 part by volume of APMA solution. The APMA solution was prepared from a 10 mmol/l solution of p-aminophenylmercuric acetate in 0.1 mmol/l NaOH by diluting it with 3 parts by volume of tris/HCl buffer, pH 7.5 (see below). The pH was adjusted to between 7.0 and 7.5 by adding 1 mmol/l HCl. After the enzyme had been activated, it was diluted with the tris/HCl buffer to a concentration of 0.83 μg/ml.
as §1, with “were” for “are”, “contained” for “contains”
Both in the case of reaction 1 and in the case of reaction 2, the enzyme reaction was monitored by fluorescence spectroscopy (328 nm (extinction)/393 nm (emission)) after 10 μl of a 3% (v/v) aqueous solution of dimethyl sulfoxide which contained 0.3 mmol of the substrate/1 had been added.
The enzyme activity was presented as increase in extinction/minute.
The effect of the inhibitor was calculated as percentage inhibition in accordance with the following formula: % inhibition=100−[(increase in extinction/minute in reaction 2)/(increase in extinction/minute in reaction 1)×100].
The IC50, that is the concentration of inhibitor which is required for 50% inhibition of the enzyme activity, was determined graphically by plotting the percentage inhibitions at different inhibitor concentrations.
The buffer solution contained 0.05% Brij (Sigma, Deisenhofen, Germany) and also 0.1 mol of tris/HCl/l, 0.1 mol of NaCl/l, 0.01 mol of CaCl2/l (pH=7.5). The enzyme solution contained 0.83 μg of the enzyme domain/ml. The substrate solution contained 0.3 mmol of the fluorogenic substrate (7-methoxycoumarin-4-yl)acetyl-Pro-Leu-Gly-Leu-3-(2′,4′-dinitrophenyl)-L-2,3-diaminopropionyl-Ala-Arg-NH2/l (Bachem, Heidelberg, Germany).

T2 sequence (P08253 110-465 limits assumed): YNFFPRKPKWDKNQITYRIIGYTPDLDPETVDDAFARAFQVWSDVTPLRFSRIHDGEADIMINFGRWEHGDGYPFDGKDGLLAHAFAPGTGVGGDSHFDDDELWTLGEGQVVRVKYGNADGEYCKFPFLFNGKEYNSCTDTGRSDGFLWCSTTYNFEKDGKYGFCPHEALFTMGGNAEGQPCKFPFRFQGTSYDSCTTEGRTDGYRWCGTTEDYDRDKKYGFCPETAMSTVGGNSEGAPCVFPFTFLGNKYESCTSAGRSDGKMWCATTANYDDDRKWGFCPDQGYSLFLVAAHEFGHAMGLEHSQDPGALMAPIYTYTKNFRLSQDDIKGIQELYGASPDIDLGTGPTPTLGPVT

IC50 [1]	IC50 [2]	SMILES
0.4 µM	0.002 µM	O=C(NO)[C@H]1[C@H]2CCCC[C@H]2CCN1S(=O)(=O)c1ccc(-c2ccc(Cl)cc2)cc1 (single isomer, unassigned) [Example 14, 2-(4′-chlorobiphenyl-4-sulfonyl)decahydroisoquinoline-1-(N-hydroxy)-carboxamide]
6 µM	2.3 µM	O=C(NO)[C@@H]1[C@@H]2CCCC[C@@H]2CCN1S(=O)(=O)c1ccc(-c2ccc(Cl)cc2)cc1 (single isomer, unassigned) [Example 15, 2-(4′-chlorobiphenyl-4-sulfonyl)decahydroisoquinoline-1-(N-hydroxy)-carboxamide]
0.4 µM	0.03 µM	O=C(NO)C1C2CCCCC2CCN1S(=O)(=O)c1ccc(-c2ccc(Cl)cc2)cc1 (centres unmarked) [Example 3, 2-(4′-chlorobiphenyl-4-sulfonyl)decahydroisoquinoline-1-(N-hydroxy)-carboxamide]
0.6 µM	0.004 µM	O=C(NO)C1C2CCCCC2CCN1S(=O)(=O)CCc1ccc(-c2ccc(Cl)cc2)cc1 (centres unmarked) [Example 7, 2-[2-(4′-chlorobiphenyl-4-yl)ethanesulfonyl]decahydroisoquinoline-1-(N-hydroxy)carboxamide]
2.1 µM	0.003 µM	O=C(NO)C1C2CCCCC2CCN1S(=O)(=O)c1ccc(-c2ccc(OC(F)(F)F)cc2)cc1 (centres unmarked) [Example 19, 2-(4′-trifluoromethoxybiphenyl-4-sulfonyl)decahydroisoquinoline-1-(N-hydroxy)carboxamide]

Second part, the compound before the results:

SMILES	IC50 [1]	IC50 [2]
O=C(NO)C1C2CCCCC2CCN1S(=O)(=O)c1ccc(Oc2ccccc2)nc1 (centres unmarked) [Example 5, 2-(6-phenoxypyridine-3-sulfonyl)decahydroisoquinoline-1-(N-hydroxy)-carboxamide trifluoroacetate]	0.07 µM	0.002 µM
O=C(NO)C1C2CCCCC2CCN1S(=O)(=O)c1ccc(Oc2ccncc2)cc1 (centres unmarked) [Example 9, 2-[4-(pyridin-4-yloxy)benzenesulfonyl]decahydroisoquinoline-1-(N-hydroxy)carboxamide trifluoroacetate]	1 µM	0.02 µM
COc1ccc(Oc2ccc(S(=O)(=O)N3CCC4CCCCC4C3C(=O)NO)cc2)cc1 (centres unmarked) [Example 11, 2-[4-(4-methoxyphenoxy)benzenesulfonyl]decahydroisoquinoline-1-(N-hydroxy)carboxamide]	0.22 µM	0.002 µM
O=C(NO)C1C2CCCCC2CCN1S(=O)(=O)c1ccc(Oc2ccc(OCC(F)(F)F)cc2)cc1 (centres unmarked) [Example 13, 2-{4-[4-(2,2,2-trifluoroethoxy)phenoxy]benzenesulfonyl}decahydroisoquinoline-1-(N-hydroxy)carboxamide]	0.18 µM	0.0026 µM
O=C(NO)C1C2CCCCC2CCN1S(=O)(=O)c1ccc(Oc2ccc(F)cc2)cc1 (centres unmarked) [Example 20, 2-[4-(4-fluorophenoxy)benzenesulfonyl]decahydroisoquinoline-1-(N-hydroxy)carboxamide]	0.041 µM	0.002 µM
O=C(NO)[C@H]1[C@H]2CCCC[C@H]2CCN1S(=O)(=O)c1ccc(Oc2ccc(F)cc2)cc1 [Example 21, 2-[4-(4-fluorophenoxy)benzenesulfonyl]decahydroisoquinoline-1-(N-hydroxy)carboxamide]	0.021 µM	0.0015 µM
O=C(NO)C1C2CCCCC2CCN1S(=O)(=O)c1ccc(Oc2ccc(OC(F)(F)F)cc2)cc1 (centres unmarked) [Example 23, 2-[4-(4-trifluoromethoxyphenoxy)benzenesulfonyl]decahydroisoquinoline-1-(N-hydroxy)carboxamide]	0.29 µM	0.002 µM
N#Cc1ccc(Oc2ccc(S(=O)(=O)N3CCC4CCCCC4C3C(=O)NO)cc2)cc1 (centres unmarked) [Example 26, 2-[4-(4-cyanophenoxy)benzenesulfonyl]decahydroisoquinoline-1-(N-hydroxy)carboxamide]	0.45 µM	0.008 µM
